Data set [1] has as its system human breast adenocarcinoma cell line (MCF-7). Put plainly: MTT cytotoxicity assay on MCF-7. Particulars: for IC50: Homo sapiens, MCF7, MTT, 24 h incubation; for SI MCF-7 (selectivity index): NIH/3T3 versus MCF-7. The data set is classed as cell-based. The method, then: (§1) This is a colorimetric assay that measures the reduction of 3-(4,5-dimethylthiazol-2-yl)-2,4,diphenyltetrazolium bromide (MTT) by mitochondria. All final compounds were tested against human breast adenocarcinoma cell line (MCF-7), human lung carcinoma cell line (A549) and mouse embryooblast cell line (NIH/3T3) to determine their cytotoxic profile. Cancer cells were cultured in RPMI medium (Hyclone, Thermo Scientific, Waltham, MA, USA) at 37 °C in a humidified atmosphere of 95% air and 5% CO2. The studied cells were situated at 2 × 10^4 cells into each well of 96-well microtiter tissue culture plates (Nunc, Denmark) and incubated for 24 h. After that, test compounds were dissolved in DMSO and added to culture wells at varying concentrations (85–1000 µM). After a 24 h incubating period, […] MTT solution (5 mg/mL MTT powder in PBS) was added to each well and the cells were incubated for 4 h at 37 °C. The purple formazan crystals produced were dissolved in DMSO and the absorbance was read by ELISA reader (OD570 nm). The percent values of cell proliferations were calculated relative to controls, whose cell proliferations were accepted as 100% [47].
Background: Tetrazolium dyes change colour on reduction, which living cells bring about.

Data set [2] relates to human lung carcinoma cell line (A549). In words: MTT cytotoxicity assay on A549. The data set is classed as cell-based. The note with it: for IC50: Homo sapiens, A549, MTT, 24 h incubation; for SI A549 (selectivity index): NIH/3T3 versus A549. The method, then:
as §1

Data set [3] deals with mouse embryoblast cell line (NIH/3T3). Put plainly: MTT cytotoxicity assay on NIH/3T3 (healthy cells). The note with it: NIH3T3, 24 h incubation. The data set is classed as cell-based. The protocol:
as §1

Data set [4] has as its target acetylcholinesterase (AChE) (Homo sapiens, UniProt P22303). In words: biochemical. Particulars: 80 µg/mL (~160 µM). The method, then:
(§2) In order to determine the acetyl- and butyrylcholinesterase enzyme inhibitions, experiments were carried out by making some changes in the method developed by Ellman. Samples were prepared by dissolving in the appropriate solvent. Adding 20 μL enzyme solution (AChE or BuChE, 1 U/mL) and 10 μL sample solution to 2.4 mL buffer solution and it was incubated for 15 min at 37 °C. After incubation, 50 μL DTNB and 75 mM ATCI solution or 20 μL of 25 mM BTCI solution were added and allowed the mixture to incubate at room temperature for 30 min. For the control group, only 10 μL of solvent was added instead of the sample solution provided all protocols are the same. […] Experiments were run in triplicate. The inhibition fractions of AChE […] BuChE enzymes were calculated using the following equation:I(%) = 100 − ([…]) × 100

The target in data set [5] is butyrylcholinesterase (BuChE) (Homo sapiens, UniProt P06276). Put plainly: biochemical. The note with it: 80 µg/mL (~160 µM). The protocol:
as §2

The subject of another data set is A549 cells. In words: Annexin V-FITC/propidium iodide flow cytometry on A549. The data set is classed as cell-based, human. Particulars: A549 cell line, IC50 concentration; for % Early Apoptotic / % Late Apoptotic / % Necrotic / % Viable: 24 h. The method, then:
(§3) Evaluation of apoptosis was carried out through the Annexin V-FITC Apoptosis Detection Kit from BD, Pharmingen, according to the manufacturer’s instruction. […] Then cells were rinsed with cold water twice and resuspended in Annexin V-FITC binding buffer at a concentration of 1 × 10^6 cells/mL. […] of Annexin V-FITC was used to stain the cells. After 15 min of incubation at 25 °C, the cell suspension was centrifugated for 5 min and cells were resuspended in Annexin V-FITC binding buffer. Propidium iodide ([…]) was added and the tubes were situated on ice and away from light. The fluorescence was measured using a flow cytometer. The results were analyzed by using FCSExpress software and represented as percentage of normal and apoptotic cells at various stages. […] The four areas in the diagrams stand for necrotic cells (Q1, positive for PI and negative for annexin/FITC, left square on the top), live cells (Q3, negative for annexin and PI, left square at the bottom), late apoptotic or necrotic cells (Q2, positive for annexin and PI, right square on the top) and apoptotic cells (Q4, negative for PI and positive for annexin, right square at the bottom), respectively. The experiment was repeated three times.
In general terms: Flow cytometry measures light scatter and fluorescence of single cells or particles in a stream.

In data set [6] the test system is MCF-7 cells. In words: Annexin V-FITC/propidium iodide flow cytometry on MCF-7. The class given is cell-based, human. The note with it: MCF-7 cell line, IC50 concentration; for % Early Apoptotic / % Late Apoptotic / % Necrotic / % Viable: 24 h. The protocol: as §3
Data set [7] deals with MCF-7 cells. In words: DNA synthesis inhibition (BrdU) on MCF-7.

Consider nine compounds from article PMC6017121, “New Thiazoline-Tetralin Derivatives and Biological Activity Evaluation” (Molecules : A Journal of Synthetic Chemistry and Natural …, 2018).

butyrylcholinesterase (BuChE), sequence (P06276 29-602): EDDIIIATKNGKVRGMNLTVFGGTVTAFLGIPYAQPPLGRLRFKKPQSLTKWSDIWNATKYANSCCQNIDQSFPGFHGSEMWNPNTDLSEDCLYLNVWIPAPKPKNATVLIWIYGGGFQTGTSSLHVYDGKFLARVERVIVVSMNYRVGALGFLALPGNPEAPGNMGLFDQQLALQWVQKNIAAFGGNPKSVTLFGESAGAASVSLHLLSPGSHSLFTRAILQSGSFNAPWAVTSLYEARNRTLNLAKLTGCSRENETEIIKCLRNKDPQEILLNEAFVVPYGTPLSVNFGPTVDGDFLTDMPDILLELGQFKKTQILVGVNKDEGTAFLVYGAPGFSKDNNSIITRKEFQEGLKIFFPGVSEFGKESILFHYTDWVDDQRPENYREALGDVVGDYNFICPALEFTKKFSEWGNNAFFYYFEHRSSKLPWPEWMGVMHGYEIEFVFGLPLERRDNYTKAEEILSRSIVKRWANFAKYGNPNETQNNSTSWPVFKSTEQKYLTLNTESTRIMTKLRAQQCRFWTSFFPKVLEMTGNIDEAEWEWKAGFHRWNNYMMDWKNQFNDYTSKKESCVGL
acetylcholinesterase (AChE), sequence (P22303 32-614, species assumed): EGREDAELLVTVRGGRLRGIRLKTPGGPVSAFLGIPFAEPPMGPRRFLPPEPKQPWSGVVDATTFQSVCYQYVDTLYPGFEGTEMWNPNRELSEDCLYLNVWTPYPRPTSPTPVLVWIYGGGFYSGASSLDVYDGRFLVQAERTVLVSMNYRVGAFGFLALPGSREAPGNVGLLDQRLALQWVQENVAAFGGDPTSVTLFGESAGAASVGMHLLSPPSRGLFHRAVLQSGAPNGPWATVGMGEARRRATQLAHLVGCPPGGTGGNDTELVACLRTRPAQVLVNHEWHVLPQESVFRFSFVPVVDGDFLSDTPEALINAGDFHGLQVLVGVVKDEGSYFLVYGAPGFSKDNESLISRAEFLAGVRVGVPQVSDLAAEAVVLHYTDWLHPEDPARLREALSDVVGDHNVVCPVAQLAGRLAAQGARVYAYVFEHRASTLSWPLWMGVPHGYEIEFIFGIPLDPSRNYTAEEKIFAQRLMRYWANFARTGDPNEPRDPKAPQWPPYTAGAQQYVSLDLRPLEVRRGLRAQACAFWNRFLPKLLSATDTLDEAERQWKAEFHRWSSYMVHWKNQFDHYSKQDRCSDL

One may read the IC50 as the midpoint of a concentration-inhibition curve. The term inhibition denotes the change of the read-out against control, counted positive when it falls. In the case of `O=C(COc1ccc2c(c1)CCCC2)NN=c1scc(-c2cccc([N+](=O)[O-])c2)n1-c1ccccc1` [Compound 4i, N′-[3-Phenyl-4-(3-nitrophenyl)thiazole-2(3H)-ylidene]-2-[(5,6,7,8-tetrahydronaphthalen-2-yl)oxy]acetohydrazide], the IC50 in data set [1], in data set [2] and in data set [3] was over 1000 µM each time. Testing at 160 µM in data set [4] gave an inhibition of 41.85 ± 0.23%. Moreover, the inhibition at 80 µg/mL in data set [5] is under 0%.

In turn, `O=C(COc1ccc2c(c1)CCCC2)NN=c1scc(-c2ccc([N+](=O)[O-])cc2)n1-c1ccccc1` [Compound 4j, N′-[3-Phenyl-4-(4-nitrophenyl)thiazole-2(3H)-ylidene]-2-[(5,6,7,8-tetrahydronaphthalen-2-yl)oxy]acetohydrazide] displayed an IC50 in data set [1] of over 1000 µM. For the same compound, in data set [2], the IC50 turned out to be 49 ± 1.41 µM and the “SI A549 (selectivity index)” value is reported as over 20.4. For the same compound, the IC50 in data set [3] is over 1000 µM. In the data set on A549 cells, the “apoptosis (early + late apoptotic cell percentage) A549” value was “over 41.5%”, the “% Early Apoptotic” value was 11.2%, the “% Late Apoptotic” value is given as 30.3% and the “% Necrotic” value was determined as 11.4%. Also, the “% Viable” value in the data set on A549 cells worked out at 47.0%. The compound further came in with an inhibition at 160 µM in data set [4] of 45 ± 1.6%. In data set [5], the inhibition at 80 µg/mL is under 0%.

As to `O=C(COc1ccc2c(c1)CCCC2)NN=c1scc(-c2ccc(Cl)cc2)n1-c1ccccc1` [Compound 4g, N′-[3-Phenyl-4-(4-chlorophenyl)thiazole-2(3H)-ylidene]-2-[(5,6,7,8-tetrahydronaphthalen-2-yl)oxy]acetohydrazide], in data set [1], inhibition was half-maximal at 483 ± 31.2 µM (IC50) and the “SI MCF-7 (selectivity index)” value amounted to 0.5. Moreover, in data set [2], the IC50 came out at 28.6 ± 4.1 µM and the “SI A549 (selectivity index)” value is reported as 7.8. The compound further yielded a 50% inhibitory concentration (IC50) in data set [3] of 224 ± 20.5 µM. Moreover, in the data set on A549 cells, the “apoptosis (early + late apoptotic cell percentage) A549” value is “over 41.5%”, the “% Early Apoptotic” value came to 18.7%, the “% Late Apoptotic” value turned out to be 26.0% and the “% Necrotic” value stood at 5.8%. Moreover, the “% Viable” value in the data set with A549 cells is 49.4%. Moreover, the inhibition at 160 µM in data set [4] worked out at 24.4 ± 1.2%. The compound further had an inhibition at 80 µg/mL in data set [5] of under 0%.

For the compound `O=C(COc1ccc2c(c1)CCCC2)NN=c1scc(-c2ccc(Br)cc2)n1-c1ccccc1` [Compound 4f, N′-[3-Phenyl-4-(4-bromophenyl)thiazole-2(3H)-ylidene]-2-[(5,6,7,8-tetrahydronaphthalen-2-yl)oxy]acetohydrazide], in data set [1], 281 ± 56.2 µM corresponded to half-maximal inhibition (IC50) and the “SI MCF-7 (selectivity index)” value is 0.5. Besides, in data set [2], the IC50 was 54.3 ± 6.8 µM and the “SI A549 (selectivity index)” value is recorded as 2.7. Further, the IC50 in data set [3] amounted to 147 ± 5.4 µM. Also, in the data set with A549 cells, the “apoptosis (early + late apoptotic cell percentage) A549” value is listed as “over 41.5%”, the “% Early Apoptotic” value amounted to 16.5%, the “% Late Apoptotic” value was 29.3% and the “% Necrotic” value amounted to 6.5%. Also, the “% Viable” value with A549 cells is on record as 47.7%. In data set [4], this compound had an inhibition at 160 µM of 42.9 ± 2.84%. In data set [5], this compound had an inhibition at 80 µg/mL of under 0%.

With `O=C(COc1ccc2c(c1)CCCC2)NN=c1scc(-c2ccccc2)n1-c1ccccc1` [Compound 4c, N′-[3,4-Diphenylthiazole-2(3H)-ylidene]-2-[(5,6,7,8-tetrahydronaphthalen-2-yl)oxy]acetohydrazide], the IC50 in data set [1] was 297 ± 46.6 µM; in data set [2] it was over 1000 µM; in data set [3] it was over 1000 µM. Also, the “SI MCF-7 (selectivity index)” value in data set [1] is listed as over 3.4. Also, the figures for the inhibition at 160 µM in data set [4] and in data set [5] were 19.3 ± 1.87% and 16.48 ± 0.08%, respectively.

Take `O=C(COc1ccc2c(c1)CCCC2)NN=c1scc(-c2ccccc2)n1C1CCCCC1` [Compound 4a, N′-(3-Cyclohexyl-4-phenylthiazole-2(3H)-ylidene)-2-[(5,6,7,8-tetrahydronaphthalen-2-yl)oxy]acetohydrazide]: in data set [1], the IC50 is over 1000 µM and the “SI MCF-7 (selectivity index)” value is under 0.2. Further, in data set [2], the IC50 turned out to be 158 ± 14.8 µM and the “SI A549 (selectivity index)” value is listed as 1.3. This compound gave a 50% inhibitory concentration (IC50) in data set [3] of 206 ± 15.3 µM. In addition, in the data set with A549 cells, the “apoptosis (early + late apoptotic cell percentage) A549” value is “over 50%”, the “% Early Apoptotic” value is listed as 7.4%, the “% Late Apoptotic” value came to 48.3% and the “% Necrotic” value was 12.8%. Moreover, the “% Viable” value with A549 cells is 31.5%. At 160 µM the inhibition in data set [4] was 38.3 ± 2.18%. This compound returned an inhibition at 160 µM in data set [5] of 28 ± 1.88%.

Take `COc1ccc(-c2csc(=NNC(=O)COc3ccc4c(c3)CCCC4)n2-c2ccccc2)cc1` [Compound 4e, N′-[3-Phenyl-4-(4-methoxyphenyl)thiazole-2(3H)-ylidene]-2-[(5,6,7,8-tetrahydronaphthalen-2-yl)oxy]acetohydrazide]: in data set [1], it took 91.4 ± 9.8 µM to reach half-maximal inhibition (IC50) and the “SI MCF-7 (selectivity index)” value was over 10.9. Moreover, in data set [2], half-maximal inhibition (IC50) was put at 708 ± 83.3 µM and the “SI A549 (selectivity index)” value is over 1.4. This compound also came in with an IC50 in data set [3] of over 1000 µM. In addition, in the data set with MCF-7 cells [6], the “apoptosis (early + late apoptotic cell percentage) MCF-7” value was 32.5%. The compound further came in with an inhibition at 160 µM in data set [4] of 10.8 ± 0.94%. Also, the inhibition at 80 µg/mL in data set [5] is under 0%.

As to `O=C(COc1ccc2c(c1)CCCC2)NN=c1scc(-c2cccc(Cl)c2Cl)n1-c1ccccc1` [Compound 4k, N′-[3-Phenyl-4-(2,3-dichlorophenyl)thiazole-2(3H)-ylidene]-2-[(5,6,7,8-tetrahydronaphthalen-2-yl)oxy]acetohydrazide], in data set [1], the IC50 was 153 ± 27.5 µM and the “SI MCF-7 (selectivity index)” value came out at 1.1. The same compound yielded a 50% inhibitory concentration (IC50) in data set [2] of over 1000 µM. This compound also yielded a half-inhibitory concentration (IC50) in data set [3] of 165 ± 11 µM. For the same compound, in the data set with MCF-7 cells [6], the “% Early Apoptotic” value came out at 2.4%, the “% Late Apoptotic” value is listed as 8.9%, the “% Necrotic” value is 34.4% and the “% Viable” value worked out at 54.3%. Testing at 160 µM in data set [4] gave an inhibition of 15.2 ± 1.99%. This compound also returned an inhibition at 80 µg/mL in data set [5] of under 0%.

Turning to `Cc1ccc(-c2csc(=NNC(=O)COc3ccc4c(c3)CCCC4)n2-c2ccccc2)cc1` [Compound 4d, N′-[3-Phenyl-4-(4-methylphenyl)thiazole-2(3H)-ylidene]-2-[(5,6,7,8-tetrahydronaphthalen-2-yl)oxy]acetohydrazide], in data set [1], 71.8 ± 12.5 µM corresponded to half-maximal inhibition (IC50) and the “SI MCF-7 (selectivity index)” value is reported as over 13.9. In data set [2], this compound came in with an IC50 of over 1000 µM. The same compound had an IC50 in data set [3] of over 1000 µM. Besides, in the data set on MCF-7 cells [6], the “% Early Apoptotic” value came out at 1.1%, the “% Late Apoptotic” value is on record as 12.1%, the “% Necrotic” value amounted to 36.1% and the “% Viable” value was 50.7%. Further, testing at 160 µM in data set [4] gave an inhibition of 43.2 ± 1.56%. Also, in data set [5], 160 µM produced 33.2 ± 2.38% inhibition. Besides, the inhibition at 71.8 µM in the data set with MCF-7 cells [7] (Homo sapiens, MCF7, 96 h, read-out: DNA synthesis inhibition on MCF-7 at IC50) turned out to be 72.2%. Further, in the data set with MCF-7 cells [7] (IC50/2 concentration (4b 34.6 μM; 4d 36.9 μM, b49: 35.9 μM)), the “DNA synthesis inhibition on MCF-7 at IC50/2” value was determined as 47.75%.
